Assay results as given in patent US20250093329A1, “SCREENING OF COMPOUNDS” (THE UNIVERSITY OF TULSA, priority 2022, published 2025).
“Also recorded” adds a separate entry of the source.

Tested on: each cell line tested
Assay: ATP levels by CellTiter-Glo, all cell lines of Table 1 taken together
Type: cell-based
Conditions: Table 1 cell lines
Description: A wide variety of ATP luminescing detection reagents are available commercially. So long as the reagent produces a luminescence in the presence of ATP, the reagent will be suitable for use in the present method. Suitable reagents include but are not limited to any ATP dependent luciferase such as but not limited to firefly luciferase, other modified luciferase based reagents, i.e. luciferase derivatives. According to the rapid method for determining the anti-cancer activity of a compound, a sample of living cells is distributed across a number of testing wells. Typically, 96-well plates are used; however, the number of wells is not critical to the current method. When using a 96-well plate the number of living cells will commonly be about 20,000. […] The sample wells contain a cell growth medium to promote cell health and growth and an additive to prevent bacterial contamination of the wells. One common example of the cell growth medium is DMEM with 10% FBS as described above. One example of the additive to prevent bacterial contamination is a solution of penicillin G and streptomycin referred to commonly as Pen-Strep. The Pen-Strep solution typically contains 5000 units of penicillin G and 5000 micrograms of streptomycin. Thus, the rapid determination of anti-cancer compounds can be carried out using the following method. • The desired number of cells are distributed in a 96-well plate containing 100 μL DMEM plus 10% FBS with optional Pen-Strep. • After 24 hours, cells are treated with the compound of interest or a 5% solution of dimethyl sulfoxide (DMSO) in water as a control. • The time period for exposure to the compound of interest and the DMSO control will vary depending on the luminescing detection reagent. However, when using a commercially available reagent such as resazurin (CellTiter Blue commercially available from Promega) or luciferase or a luciferase derivative (CellTiter Glo commercially available from Promega) the time period can be readily determined with reference to literature from the commercial source. Other luminescing detection agents can also be used with minimal experimentation to determine the desired compound exposure time. • Upon completion of the time period for exposure to the compound of interest or the DMSO, 10 μL of the luminescing detection reagent is added and the cells are lysed by a detergent added along with the luminescing detection reagent. • When the reagent is resazurin, as found in CellTiter-Blue the time period for exposure to the compound of interest and the DMSO will be about 24 hours. • When the reagent is luciferase or a luciferase derivative as found in CellTiter-Glo the time period for exposure to the compound of interest and the DMSO will be about 30 minutes to four hours. • The luminescing detection reagent is added over a period of time. • When using resazurin, the time period for the addition of the 10 μl volume takes place over a period of about one to four hours. • When using luciferase or a luciferase derivative, the time period is about 3 minutes to about 7 minutes, typically about 5 minutes. • During the time period of addition of the luminescing detection reagent the resulting luminescence is measured using conventional methods and devices. […] If the compound of interest deactivates the cell, then the cell produces less or no ATP. As a result, the cells in the well treated with the compound of interest will have a lower luminescence value as compared to the cells in wells treated with DMSO. • The value for the cells treated with the compound of interest is reported as a “percent of control” (POC) value. The determination of POC is calculated by dividing the averaged response from duplicate wells containing the cells as treated with the compound of interest by the average response of duplicate control wells which contain only cells and DMSO (in other words, a blank control experiment). […]

O=S(=O)(NCc1c[nH]c2ccccc12)c1ccc(Cl)cc1 [Compound 2, N-[(1H-indol-3-yl)methyl]-4-chlorobenzenesulfonamide]
reduction in luminescence (reduced ATP) across the cell lines, compound alone (100 μM compound alone): reduction in luminescence | effectiveness across the cell lines, with 2-DG (100 μM compound with 2-DG): effectiveness against each cell line; also recorded: remarkable effectiveness
